Literature values, collected in paper PMC6915728 (Nature Communications, 2019).
Where two headings read alike, the source gives them in different places.

Tested on: bacterial species in which the gene showed activity
Settings: cited from earlier work
[1] = Bordetella pertussis, ref http://www.ncbi.nlm.nih.gov/pmc/articles/PMC4136009/
[2] = Enterobacteriaceae, ref https://www.ncbi.nlm.nih.gov/pmc/articles/PMC3264287/, https://onlinelibrary.wiley.com/doi/full/10.1111/j.1348-0421.2010.00238.x, https://jb.asm.org/content/180/15/4002.full
[3] = Salmonella typhimurium, Escherichia coli, ref https://www.ncbi.nlm.nih.gov/pmc/articles/PMC3037666/, https://www.ncbi.nlm.nih.gov/pmc/articles/PMC4808223/
[4] = Staphylococcus aureus, ref http://onlinelibrary.wiley.com/doi/10.1111/j.1365-2958.2007.05986.x/epdf
[5] = Klebsiella pneumoniae, ref http://iai.asm.org/content/72/12/7107.full.pdf+html
[6] = Pseudomonas aeruginosa, Salmonella typhimurium, Escherichia coli, ref http://www.sciencemag.org/content/286/5444/1561.full.pdf, http://onlinelibrary.wiley.com/doi/10.1111/j.1365-2958.1995.tb02299.x/abstract, http://www.ncbi.nlm.nih.gov/pmc/articles/PMC50673/pdf/pnas01098-0300.pdf, https://jb.asm.org/content/jb/182/14/4077.full.pdf
[7] = Salmonella enterica serovar Typhimurium, ref http://www.microbiologyresearch.org/docserver/fulltext/micro/154/2/666.pdf?expires=1487718158&id=id&accname=guest&checksum=D8B884D02A8B2A8619216A48E0826377
[8] = Salmonella typhimurium, Escherichia coli, ref https://www.ncbi.nlm.nih.gov/pmc/articles/PMC3037666/, https://www.ncbi.nlm.nih.gov/pmc/articles/PMC3837802/pdf/zam7770.pdf

Sequence: LLGDFFRKSKEKIGKEFKRIVQRIKDFLRNLVPRTES [LL37, LL-37 human cathelicidin, human host-defense peptide; disrupts cell membrane; cluster C2]
- Gene that modulates bacterial susceptibility to the AMP [1]: lgmA, IgmB, IgmC
- Gene that modulates bacterial susceptibility to the AMP [2]: ompT
- Gene that modulates bacterial susceptibility to the AMP (Enterococcus faecalis, ref http://www.jbc.org/content/279/51/52820.full.pdf): sprE
- Gene that modulates bacterial susceptibility to the AMP (Enterococcus faecalis, ref https://www.ncbi.nlm.nih.gov/pmc/articles/PMC2976315/): gelE
- Gene that modulates bacterial susceptibility to the AMP (Group A Streptococcus pyogenes, ref http://www.ncbi.nlm.nih.gov/pmc/articles/PMC3241932/pdf/nihms218493.pdf): emm1
- Gene that modulates bacterial susceptibility to the AMP (Neisseria meningitidis, gene siaC, ref http://jb.asm.org/content/191/12/3861.full.pdf+html): siaC
- Gene that modulates bacterial susceptibility to the AMP (Neisseria meningitidis, gene siaD, ref http://jb.asm.org/content/191/12/3861.full.pdf+html): siaD
- Gene that modulates bacterial susceptibility to the AMP (Proteus mirabilis, ref http://www.ncbi.nlm.nih.gov/pmc/articles/PMC517467/pdf/0713-04.pdf): zapA
- Gene that modulates bacterial susceptibility to the AMP (Pseudomonas aeruginosa, ref http://portal.research.lu.se/portal/files/2657079/623699.pdf): lasA, IsaB
- Gene that modulates bacterial susceptibility to the AMP [3]: amiA, amiC
- Gene that modulates bacterial susceptibility to the AMP (Salmonella typhimurium, ref http://www.sciencedirect.com/science/article/pii/S1368764616300024): waaY
- Gene that modulates bacterial susceptibility to the AMP (Staphylococcus aureus, ref http://aac.asm.org/content/48/12/4673.full.pdf+html): aur (aureolysin)
- Gene that modulates bacterial susceptibility to the AMP [4]: apsS
- Gene that modulates bacterial susceptibility to the AMP (Streptococcus pyogenes, ref http://www.jbc.org/content/279/51/52820.full.pdf): speB
- Gene that modulates bacterial susceptibility to the AMP: pgtE and pla

Sequence: KTKKKFLKKT [PXB, Polymyxin B, from Bacillus polymyxa, purchased from Sigma-Aldrich; disrupts cell membrane; cluster C1]
- Gene that modulates bacterial susceptibility to the AMP (Acinetobacter baumannii, ref http://aac.asm.org/content/54/12/4971.full.pdf+html): lpxA
- Gene that modulates bacterial susceptibility to the AMP [1]: lgmA, IgmB, IgmC
- Gene that modulates bacterial susceptibility to the AMP (Burkholderia genus, ref http://www.ncbi.nlm.nih.gov/pmc/articles/PMC3143681/, http://www.ncbi.nlm.nih.gov/pmc/articles/PMC1428139/): waaF
- Gene that modulates bacterial susceptibility to the AMP (Campylobacter jejuni, ref http://www.ncbi.nlm.nih.gov/pmc/articles/PMC3270987/): eptC
- Gene that modulates bacterial susceptibility to the AMP (Escherichia coli, Klebsiella pneumoniae, Pseudomonas aeruginosa, Kluyvera ascorbata, ref http://www.ncbi.nlm.nih.gov/pubmed/26603172, http://ac.els-cdn.com/S1473309915005332/1-s2.0-S1473309915005332-main.pdf?_tid=16a7f944-6944-11e6-8a9d-00000aab0f02&acdnat=1471965364_7f481026d1a49114e23adef4a6b4d1a9, https://www.ncbi.nlm.nih.gov/pmc/articles/PMC5119035/): mcr1
- Gene that modulates bacterial susceptibility to the AMP (Escherichia coli, Salmonella sp., Pseudomonas aeruginosa, ref https://ac.els-cdn.com/S0923250806000532/1-s2.0-S0923250806000532-main.pdf?_tid=eafe08ea-d0fa-11e7-b1a6-00000aacb35f&acdnat=1511516356_5b16dbb059dc1cc9bc53dd73456e437d): etk
- Gene that modulates bacterial susceptibility to the AMP (Escherichia coli, ref http://www.jbc.org/content/287/46/38778.full.pdf, http://www.jbc.org/content/early/2007/10/10/jbc.M706172200.full.pdf, https://onlinelibrary.wiley.com/doi/epdf/10.1111/j.1365-2958.2012.08154.x): arnD
- Gene that modulates bacterial susceptibility to the AMP (Helicobacter pylori, ref http://www.ncbi.nlm.nih.gov/pmc/articles/PMC1482963/): lpxE
- Gene that modulates bacterial susceptibility to the AMP [5]: cps
- Gene that modulates bacterial susceptibility to the AMP (Klebsiella pneumoniae, ref http://jac.oxfordjournals.org/content/70/1/75.full.pdf+html, http://embomolmed.embopress.org/content/9/4/430.long): mgrB
- Gene that modulates bacterial susceptibility to the AMP (Klebsiella pneumoniae, ref http://www.ncbi.nlm.nih.gov/pmc/articles/PMC2798511/): acrB
- Gene that modulates bacterial susceptibility to the AMP (Neisseria meningitidis, Neisseria gonorrhoeae, ref http://www.ncbi.nlm.nih.gov/pmc/articles/PMC1196002/): mtrC, mtrD, mtrE
- Gene that modulates bacterial susceptibility to the AMP (Neisseria meningitidis, ref https://www.ncbi.nlm.nih.gov/pmc/articles/PMC1196002/): lptA
- Gene that modulates bacterial susceptibility to the AMP (Neisseria meningitidis, ref https://www.ncbi.nlm.nih.gov/pmc/articles/PMC1196002/pdf/0005-05.pdf): lpxL1
- Gene that modulates bacterial susceptibility to the AMP (Parasutterella excrementihominis, ref https://utmb.influuent.utsystem.edu/en/publications/quorum-sensing-escherichia-coli-regulators-b-and-c-qsebc-a-novel-): qseB (pmrA)
- Gene that modulates bacterial susceptibility to the AMP (Porphyromonas gingivalis, ref https://www.nature.com/articles/ijos200918.pdf?origin=ppub, https://www.ncbi.nlm.nih.gov/pmc/articles/PMC4388331/pdf/nihms-656041.pdf): lpxF
- Gene that modulates bacterial susceptibility to the AMP [6]: phoP (PhoPQ)
- Gene that modulates bacterial susceptibility to the AMP (Pseudomonas aeruginosa, gene colR (ColRS), ref https://www.ncbi.nlm.nih.gov/pmc/articles/PMC4244539/pdf/fmicb-05-00643.pdf, http://aac.asm.org/content/57/5/2204.full.pdf+html): colR (ColRS)
- Gene that modulates bacterial susceptibility to the AMP (Pseudomonas aeruginosa, gene cprR (CprRS), ref https://www.ncbi.nlm.nih.gov/pmc/articles/PMC4244539/pdf/fmicb-05-00643.pdf, http://aac.asm.org/content/57/5/2204.full.pdf+html): cprR (CprRS)
- Gene that modulates bacterial susceptibility to the AMP (Pseudomonas aeruginosa, ref http://aac.asm.org/content/54/8/3372.full.pdf+html, http://aac.asm.org/content/56/12/6212.full.pdf+html, http://aac.asm.org/content/57/5/2204.full.pdf+html): parR (ParR-ParS)
- Gene that modulates bacterial susceptibility to the AMP (Pseudomonas aeruginosa, ref http://jb.asm.org/content/186/2/575.long): pmrB
- Gene that modulates bacterial susceptibility to the AMP (Salmonella enterica serovar Typhimurium, ref http://www.jbc.org/content/279/37/38618.long, https://onlinelibrary.wiley.com/doi/epdf/10.1111/j.1365-2958.2005.04553.x): slyA
- Gene that modulates bacterial susceptibility to the AMP (Salmonella enterica serovar Typhimurium, ref http://www.jbc.org/content/279/37/38618.long): ugtL
- Gene that modulates bacterial susceptibility to the AMP [7]: yejA
- Gene that modulates bacterial susceptibility to the AMP (Salmonella sp., ref https://www.ncbi.nlm.nih.gov/pmc/articles/PMC2904496/): eptA
- Gene that modulates bacterial susceptibility to the AMP [8]: cpxA (CpxA/CpxR)
- Gene that modulates bacterial susceptibility to the AMP (Salmonella typhimurium, gene pmrF (arnT operon), ref http://www.jbc.org/content/287/46/38778.full.pdf): pmrF (arnT operon)
- Gene that modulates bacterial susceptibility to the AMP (Salmonella typhimurium, gene yfbG (arnA), ref http://www.jbc.org/content/287/46/38778.full.pdf): yfbG (arnA)
- Gene that modulates bacterial susceptibility to the AMP (Salmonella typhimurium, ref https://www.ncbi.nlm.nih.gov/pmc/articles/PMC205548/pdf/jbacter00030-0157.pdf): pmrD
- Gene that modulates bacterial susceptibility to the AMP (Staphylococcus aureus, ref http://aac.asm.org/content/51/8/2679.full.pdf+html): graR(GraRS)
- Gene that modulates bacterial susceptibility to the AMP (Vibrio cholerae, ref http://pubs.acs.org/doi/pdf/10.1021/cb500438x): almE, almF, almG
- Gene that modulates bacterial susceptibility to the AMP (Yersinia sp., ref http://www.helsinki.fi/yersinia/pdf_own/Bengo_MolMic_2000_37_67.pdf): rosA
- Gene that modulates bacterial susceptibility to the AMP: rcp (pagP) and pmm and bveA (BMEII0681)
- Gene that modulates bacterial susceptibility to the AMP (pathogenic or commensal Enterobacteriaceae species, gene rcsB, ref https://www.ncbi.nlm.nih.gov/pmc/articles/PMC2895427/pdf/nihms212407.pdf): rcsB
- Gene that modulates bacterial susceptibility to the AMP (pathogenic or commensal Enterobacteriaceae species, gene rcsC, ref https://www.ncbi.nlm.nih.gov/pmc/articles/PMC2895427/pdf/nihms212407.pdf): rcsC
- Gene that modulates bacterial susceptibility to the AMP (pathogenic or commensal Enterobacteriaceae species, gene rcsD, ref https://www.ncbi.nlm.nih.gov/pmc/articles/PMC2895427/pdf/nihms212407.pdf): rcsD

Sequence: TSSPPAAVVVRRRRRRRRRRRRRRRRRRR [PROA, Protamine, source herring, purchased from Sigma-Aldrich; cluster C3]
- Gene that modulates bacterial susceptibility to the AMP (Burkholderia cenocepacia, ref http://www.microbiologyresearch.org/docserver/fulltext/micro/155/9/2818.pdf?expires=1468919235&id=id&accname=guest&checksum=2CEA64BA8195145BE72C98BB20076627): zmpA
- Gene that modulates bacterial susceptibility to the AMP (Burkholderia cenocepacia, ref http://www.microbiologyresearch.org/docserver/fulltext/micro/155/9/2818.pdf?expires=1468919235&id=id&accname=guest&checksum=2CEA64BA8195145BE72C98BB20076628): zmpB
- Gene that modulates bacterial susceptibility to the AMP [2]: ompT
- Gene that modulates bacterial susceptibility to the AMP [5]: cps
- Gene that modulates bacterial susceptibility to the AMP (Proteus mirabilis, ref http://aac.asm.org/content/45/7/2030.long): sapD
- Gene that modulates bacterial susceptibility to the AMP [6]: phoP (PhoPQ)
- Gene that modulates bacterial susceptibility to the AMP (Salmonella Typhimurium LT2, ref https://doi.org/10.1093/jac/dkq059): hemC (hem operon)
- Gene that modulates bacterial susceptibility to the AMP [7]: yejA
- Gene that modulates bacterial susceptibility to the AMP (Salmonella enterica, Escherichia coli, ref http://www.ncbi.nlm.nih.gov/pmc/articles/PMC395316/pdf/emboj00065-0046.pdf http://www.ncbi.nlm.nih.gov/pmc/articles/PMC538956/pdf/1013-04.pd): sapA
- Gene that modulates bacterial susceptibility to the AMP [8]: cpxA (CpxA/CpxR)
- Gene that modulates bacterial susceptibility to the AMP [3]: amiA, amiC
- Gene that modulates bacterial susceptibility to the AMP (Salmonella typhimurium, ref https://www.ncbi.nlm.nih.gov/pmc/articles/PMC3037666/): tatA
- Gene that modulates bacterial susceptibility to the AMP (Staphylococcus aureus, SalmonellaTyphimurium, ref http://ac.els-cdn.com/S0022202X15369608/1-s2.0-S0022202X15369608-main.pdf?_tid=6fa51c80-693e-11e6-b18c-00000aacb362&acdnat=1471962936_8118358d97a056d7d78b5e8b4ca8d03b, https://www.sciencedirect.com/science/article/pii/S0928824401002917): hemB

Sequence: ILPWKWPWWPWRR [IND, Indolicidin, antimicrobial peptide from bovine neutrophils; cluster C3]
- Gene that modulates bacterial susceptibility to the AMP [1]: lgmA, IgmB, IgmC
- Gene that modulates bacterial susceptibility to the AMP [4]: apsS
